Source: patent US10329270B2, “Heteroaryl compounds as BTK inhibitors and uses thereof” (Merck Patent GmbH, priority 2013, dated 2019)

Biological target: T1, full-length human BTK (Homo sapiens, UniProt Q06187)
T1 construct: 2.5× stocks of full-length human BTK (08-080); purchased CarnaBio USA, Inc., Natick, Mass; 08-080
Test: Assay A: BTK IC50 Enzyme Assay (microfluidic off-chip mobility shift kinase assay)
Type: biochemical
Details: full-length human BTK, kinKDR peptide substrate, incubated 90 min at 27 C; read-out: Assay A (Time Dependent BTK Enzyme Assay IC50)
Description: Assay A: BTK IC50 Enzyme Assay
The following describes a microfluidic, off-chip mobility shift kinase assay used to measure inherent potency of compounds against BTK enzyme. Compounds described by embodiments of the present invention were assayed using this protocol and the data from the same is recorded in Table 2 within the column labeled: “Time Dependent BTK Enzyme Assay IC50”.
Stopped reactions were monitored at −2 PSI, −3000 V/−700 V in a LabChip 3000 plate reader from Caliper Life Sciences, a PerkinElmer Company (Hopkinton, Mass.), and the activity was measured by off-chip mobility shift assay measuring the charge/mass difference between substrate and product resulting from peptide phosphorilation. IC50 and efficacy were determined by plotting log [Inhibitor] vs. % Activity in GeneData Screener (Basel, Switzerland). […] I<1 uM and II>1 uM.

T1 sequence (Q06187 whole entry): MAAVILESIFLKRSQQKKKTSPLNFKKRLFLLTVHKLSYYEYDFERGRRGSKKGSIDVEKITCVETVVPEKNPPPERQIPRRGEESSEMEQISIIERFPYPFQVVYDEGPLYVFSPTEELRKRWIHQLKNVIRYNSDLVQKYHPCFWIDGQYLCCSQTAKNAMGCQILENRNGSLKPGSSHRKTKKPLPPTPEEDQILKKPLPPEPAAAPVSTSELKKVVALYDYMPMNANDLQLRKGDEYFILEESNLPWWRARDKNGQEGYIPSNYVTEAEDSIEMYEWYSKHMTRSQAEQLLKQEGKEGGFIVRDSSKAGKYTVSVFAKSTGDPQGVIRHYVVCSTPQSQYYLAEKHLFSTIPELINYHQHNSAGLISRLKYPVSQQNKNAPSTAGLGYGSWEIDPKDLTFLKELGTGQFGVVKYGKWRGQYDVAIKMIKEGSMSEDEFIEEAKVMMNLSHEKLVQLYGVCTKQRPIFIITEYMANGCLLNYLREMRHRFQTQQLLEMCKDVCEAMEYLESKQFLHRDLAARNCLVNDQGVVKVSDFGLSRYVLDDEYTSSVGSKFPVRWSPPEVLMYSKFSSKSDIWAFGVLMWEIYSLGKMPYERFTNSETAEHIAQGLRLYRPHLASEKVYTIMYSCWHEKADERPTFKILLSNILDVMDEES

| IC50 | Structure (SMILES) |
| --- | --- |
| 100 to 1000 nM | C=CC(=O)N[C@H]1CCN(c2nc(Oc3ccc(Oc4ccccc4)cc3)c(C(N)=O)cc2F)C1 [Compound 2, 6-((S)-3-Acryloylamino-pyrrolidin-1-yl)-5-fluoro-2-(4-phenoxy-phenoxy)-nicotinamide] |
| 100 to 1000 nM | C=CC(=O)N[C@H]1CCN(c2nc(Nc3ccc(CCN4CCCC4)cc3)c(F)cc2C(N)=O)C1 [Compound 4, 2-((S)-3-Acryloylamino-pyrrolidin-1-yl)-5-fluoro-6-[4-(2-pyrrolidin-1-yl-ethyl)-phenylamino]-nicotinamide] |
| 100 to 1000 nM | C=CC(=O)N[C@H]1CCN(c2nc(Nc3ccc(C(=O)NC(C)(C)C)cc3)c(C(N)=O)cc2F)C1 [Compound 5, 6-((S)-3-Acryloylamino-pyrrolidin-1-yl)-2-(4-tert-butylcarbamoyl-phenylamino)-5-fluoro-nicotinamide] |
| 1000 to 5000 nM | C=CC(=O)N[C@H]1CCN(c2nc(Nc3ccc(N4C[C@@H](C)O[C@@H](C)C4)nc3)c(C(N)=O)cc2F)C1 [Compound 6, 6-((S)-3-Acryloylamino-pyrrolidin-1-yl)-2-[6-(cis-2,6-dimethyl-morpholin-4-yl)-pyridin-3-ylamino]-5-fluoro-nicotinamide] |
| < 100 nM | C=CC(=O)N1C[C@@H]2C[C@H]1CN2c1ccc(C(N)=O)c(Nc2ccc(C)nc2)n1 [Compound 8] |
| < 100 nM | C=CC(=O)N1CC=C(c2ccc(C(N)=O)c(Nc3ccc(OC4CCN(C)CC4)cc3)n2)CC1 [Compound 13, 1′-Acryloyl-6-[4-(1-methyl-piperidin-4-yloxy)-phenylamino]-1′,2′,3′,6′-tetrahydro-[2,4′]bipyridinyl-5-carboxylic acid amide] |
| < 100 nM | C=CC(=O)N1C[C@@H]2C[C@H]1CN2c1ccc(C(N)=O)c(Nc2cccnc2)n1 [Compound 15, 6-((1S,4S)-5-acryloyl-2,5-diazabicyclo[2.2.1]heptan-2-yl)-2-(pyridin-3-ylamino)nicotinamide] |
| < 100 nM | C=CC(=O)N1CCC(c2ccc(C(N)=O)c(Nc3ccc(C(=O)N4CCN(C(=O)CCCCNC(=O)OC(C)(C)C)CC4)cc3)n2)CC1 [Compound 19] |
| < 100 nM | C=CC(=O)N[C@H]1CCN(c2ccc(C(N)=O)c(Nc3ccc(C(=O)N4CCCCC4)cc3)n2)C1 [Compound 21, 6-((S)-3-Acryloylamino-pyrrolidin-1-yl)-2-[4-(piperidine-1-carbonyl)-phenylamino]-nicotinamide] |
| < 100 nM | C=CC(=O)N[C@H]1CCN(c2ccc(C(N)=O)c(Nc3ccc(CCN4CCC(F)(F)C4)cc3)n2)C1 [Compound 24, 6-((S)-3-Acryloylamino-pyrrolidin-1-yl)-2-{4-[2-(3,3-difluoro-pyrrolidin-1-yl)-ethyl]-phenylamino}-nicotinamide] |
| < 100 nM | C=CC(=O)N[C@H]1CCN(c2ccc(C(N)=O)c(Nc3ccc(N4CCC(F)(F)CC4)cc3)n2)C1 [Compound 25, 6-((S)-3-Acryloylamino-pyrrolidin-1-yl)-2-[4-(4,4-difluoro-piperidin-1-yl)-phenylamino]-nicotinamide] |
| < 100 nM | C=CC(=O)N[C@H]1CCN(c2ccc(C(N)=O)c(Nc3ccc(C(=O)N(C)C)cc3)n2)C1 [Compound 26, 6-((S)-3-Acryloylamino-pyrrolidin-1-yl)-2-(4-dimethylcarbamoyl-phenylamino)-nicotinamide] |
| < 100 nM | C=CC(=O)N[C@H]1CCN(c2ccc(C(N)=O)c(Nc3ccc(N4CC(C)OC(C)C4)c(F)c3)n2)C1 (stereo partly drawn) [Compound 27, 6-((S)-3-Acryloylamino-pyrrolidin-1-yl)-2-[4-(2,6-dimethyl-morpholin-4-yl)-3-fluoro-phenylamino]-nicotinamide] |
| < 100 nM | C=CC(=O)N1CC=C(c2ccc(C(N)=O)c(Nc3ccc(C(=O)N4CCCCC4)cc3)n2)CC1 [Compound 28, 1′-Acryloyl-6-[4-(piperidine-1-carbonyl)-phenylamino]-1′,2′,3′,6′-tetrahydro-[2,4′]bipyridinyl-5-carboxylic acid amide] |
